The experiment concerns the target T1, budding yeast cohesin tetramer (Smc1, Smc3, Scc1/Mcd1, Scc3) with Scc2-Scc4 loader complex (Saccharomyces cerevisiae, UniProt P32908+P47037).
T1 construct: tetramer overexpressed in S. cerevisiae W303-1a; Smc1-3xStrepII, Mcd1-8xHis-3xHA; loader Scc2-3xmyc-3xStrepII with Scc4; tags kept; with Sister chromatid cohesion protein 1; Cohesin subunit SCC3; Sister chromatid cohesion protein 2; MAU2 chromatid cohesion factor homolog
The experiment is described as follows: [gamma-32P]ATP hydrolysis, thin-layer chromatography. The experiment is classed as biochemical. The settings on record: 30 nM cohesin, 60 nM Scc2/4, 0.2 nM lambda-DNA, 400 uM ATP, 0.5 mM MgCl2, 20 mM NaCl, pH 7.0, 29 C; labelled compound.

Turning to `Nc1ncnc2c1ncn2[C@@H]1O[C@H](COP(=O)(O)OP(=O)(O)OP(=O)(O)O)[C@@H](O)[C@H]1O` [ATP], the “[gamma-32P]ATP hydrolysis, thin-layer chromatography” value was “our purified Scc2-Scc4 complex was able to stimulate cohesin ATPase activity”.

Source of the values: paper PMC6881171, “A conserved ATP- and Scc2/4-dependent activity for cohesin in tethering DNA molecules” (Science Advances, 2019).
